Reference: patent US7211572B2 (Japan Tobacco Inc., priority 2003, dated 2007)
Counter-ions that a name gives are not always drawn.

Target: T1, HIV integrase (Human immunodeficiency virus type 1 group M subtype B, UniProt P12497, F1332H)
T1 construct: HIV integrase full length gene; made in house; host or cells: Escherichia coli BL21(DE3), plasmid pET21a-INH
Test: Determination of enzyme (HIV integrase) inhibitory activity
Assay type: biochemical
Conditions: recombinant HIV integrase (F185H), strand transfer ELISA, absorbance at 450 nm
Method in brief: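 Full-length integrase with F185H, expressed in E. coli and purified, was reacted for 60 min at 37 °C with compound and biotinylated donor DNA bound to streptavidin plates. Target DNA was added for 10 min, then anti-digoxigenin-peroxidase detection at A450; IC50 from % inhibition versus enzyme-free blank.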

Q: For `O=C(Nc1cn2ccn(Cc3cccc(Cl)c3)c(=O)c2c(O)c1=O)c1ccc(F)cc1` [Example 278, N-[2-(3-chlorobenzyl)-9-hydroxy-1,8-dioxo-1,8-dihydro-2H-pyrido[1,2-a]pyrazin-7-yl]-4-fluorobenzamide], which IC50 is on record?
A: The IC50 was less than 10 nM.

Q: `O=C(Nc1cn2ccn(Cc3cccc(Cl)c3)c(=O)c2c(O)c1=O)c1ccccn1` [Example 279, N-[2-(3-chlorobenzyl)-9-hydroxy-1,8-dioxo-1,8-dihydro-2H-pyrido[1,2-a]pyrazin-7-yl]pyridine-2-carboxamide trifluoroacetate] was tested. Which IC50 did it give?
A: The IC50 was less than 10 nM.

Q: For `CC(C)Nc1cn2ccn(Cc3cccc(Cl)c3)c(=O)c2c(O)c1=O` [Example 280, 2-(3-chlorobenzyl)-9-hydroxy-7-isopropylamino-2H-pyrido [1,2-a]pyrazine-1,8-dione hydrochloride], which IC50 is on record?
A: Its IC50 is 10 to 100 nM.

Q: How did the IC50 turn out when `CCN(CC)c1cn2ccn(Cc3cccc(Cl)c3)c(=O)c2c(O)c1=O` [Example 281, 2-(3-chlorobenzyl)-7-diethylamino-9-hydroxy-2H-pyrido[1,2-a]pyrazine-1,8-dione hydrochloride] was run?
A: Its IC50 is 10 to 100 nM.

Q: For `O=C1c2c(O)c(=O)c(-c3ccccn3)cn2CCN1Cc1cccc(Cl)c1` [Example 282, 2-(3-chlorobenzyl)-9-hydroxy-7-(pyridin-2-yl)-3,4-dihydro-2H-pyrido[1,2-a]pyrazine-1,8-dione hydrochloride], which IC50 is on record?
A: The IC50 was less than 10 nM.

Q: How did the IC50 turn out when `CC(C)CNc1cn2ccn(Cc3cccc(Cl)c3)c(=O)c2c(O)c1=O` [Example 283, 2-(3-chlorobenzyl)-9-hydroxy-7-isobutylamino-2H-pyrido[1,2-a]pyrazine-1,8-dione hydrochloride] was run?
A: Its IC50 is 10 to 100 nM.

Q: Which IC50 does the source give for `CC(C)C(C(=O)Nc1cn2ccn(Cc3cccc(Cl)c3)c(=O)c2c(O)c1=O)C(C)C` [Example 284, N-[2-(3-chlorobenzyl)-9-hydroxy-1,8-dioxo-1,8-dihydro-2H-pyrido[1,2-a]pyrazin-7-yl] -2-isopropyl-3-methylbutyramide] here?
A: Its IC50 is 10 to 100 nM.

Q: `CCNc1cn2ccn(Cc3cccc(Cl)c3)c(=O)c2c(O)c1=O` [Example 285, 2-(3-chlorobenzyl)-7-ethylamino-9-hydroxy-2H-pyrido[1,2-a]pyrazine-1,8-dione hydrochloride] was tested. Which IC50 did it give?
A: The IC50 was 10 to 100 nM.

Q: Which IC50 does the source give for `O=C(Nc1cn2ccn(Cc3cccc(Cl)c3)c(=O)c2c(O)c1=O)c1cccnc1` [Example 286, N-[2-(3-chlorobenzyl)-9-hydroxy-1,8-dioxo-1,8-dihydro-2H-pyrido[1,2-a]pyrazin-7-yl]nicotinamide trifluoroacetate] here?
A: Its IC50 is less than 10 nM.

Q: How did the IC50 turn out when `O=C(Nc1cn2ccn(Cc3cccc(Cl)c3)c(=O)c2c(O)c1=O)c1ccncc1` [Example 287, N-[2-(3-chlorobenzyl)-9-hydroxy-1,8-dioxo-1,8-dihydro-2H-pyrido[1,2-a]pyrazin-7-yl]isonicotinamide trifluoroacetate] was run?
A: Its IC50 is less than 10 nM.

Q: For `O=C(Nc1cn2ccn(Cc3cccc(Cl)c3)c(=O)c2c(O)c1=O)c1ccco1` [Example 288, N-[2-(3-chlorobenzyl)-9-hydroxy-1,8-dioxo-1,8-dihydro-2H-pyrido[1,2-a]pyrazin-7-yl]furan-2-carboxamide], which IC50 is on record?
A: Its IC50 is less than 10 nM.

Q: With `O=C(Nc1cn2ccn(Cc3cccc(Cl)c3)c(=O)c2c(O)c1=O)c1cccs1` [Example 289, N-[2-(3-chlorobenzyl)-9-hydroxy-1,8-dioxo-1,8-dihydro-2H-pyrido[1,2-a]pyrazin-7-yl]thiophene-2-carboxamide] as the compound, how does the IC50 read?
A: Its IC50 is less than 10 nM.

Q: For `O=C1c2c(O)c(=O)c(-c3cccnn3)cn2CCN1Cc1cccc(Cl)c1` [Example 290, 2-(3-chlorobenzyl)-9-hydroxy-7-(pyridazin-3-yl)-3,4-dihydro-2H-pyrido[1,2-a]pyrazine-1,8-dione hydrochloride], which IC50 is on record?
A: Its IC50 is 10 to 100 nM.

Q: How did the IC50 turn out when `O=C1c2c(O)c(=O)c(-c3nccs3)cn2CCN1Cc1ccc(F)c(F)c1` [Example 291, 2-(3,4-difluorobenzyl)-9-hydroxy-7-(thiazol-2-yl)-3,4-dihydro-2H-pyrido[1,2-a]pyrazine-1,8-dione] was run?
A: Its IC50 is 10 to 100 nM.

Q: How did the IC50 turn out when `O=C1c2c(O)c(=O)c(-c3nccs3)cn2CCN1Cc1cccc(Cl)c1F` [Example 292, 2-(3-chloro-2-fluorobenzyl)-9-hydroxy-7-(thiazol-2-yl)-3,4-dihydro-2H-pyrido[1,2-a]pyrazine-1,8-dione] was run?
A: Its IC50 is less than 10 nM.

Q: With `O=C1c2c(O)c(=O)c(-c3nccs3)cn2CCN1Cc1ccc(Cl)cc1` [Example 293, 2-(4-chlorobenzyl)-9-hydroxy-7-(thiazol-2-yl)-3,4-dihydro-2H-pyrido[1,2-a]pyrazine-1,8-dione] as the compound, how does the IC50 read?
A: The IC50 was 10 to 100 nM.

Q: How did the IC50 turn out when `O=C1c2c(O)c(=O)c(-c3nccs3)cn2CCN1Cc1ccc(Cl)c(F)c1` [Example 294, 2-(4-chloro-3-fluorobenzyl)-9-hydroxy-7-(thiazol-2-yl)-3,4-dihydro-2H-pyrido[1,2-a]pyrazine-1,8-dione] was run?
A: The IC50 was less than 10 nM.

Q: For `COc1cc(Cl)ccc1CN1CCn2cc(-c3nccs3)c(=O)c(O)c2C1=O` [Example 295, 2-(4-chloro-2-methoxybenzyl)-9-hydroxy-7-(thiazol-2-yl)-3,4-dihydro-2H-pyrido[1,2-a]pyrazine-1,8-dione], which IC50 is on record?
A: Its IC50 is 10 to 100 nM.

Q: Which IC50 does the source give for `Cn1cccc1C(=O)Nc1cn2ccn(Cc3cccc(Cl)c3)c(=O)c2c(O)c1=O` [Example 296, N-[2-(3-chlorobenzyl)-9-hydroxy-1,8-dioxo-1,8-dihydro-2H-pyrido[1,2-a]pyrazin-7-yl]-1-methyl-1H-pyrrole-2-carboxamide] here?
A: The IC50 was less than 10 nM.

Q: For `O=C1c2c(O)c(=O)c(-c3nccs3)cn2CCN1CCCc1ccc(Cl)cc1` [Example 297, 2-[3-(4-chlorophenyl)propyl]-9-hydroxy-7-(thiazol-2-yl)-3,4-dihydro-2H-pyrido[1,2-a]pyrazine-1,8-dione hydrochloride], which IC50 is on record?
A: The IC50 was 10 to 100 nM.

Q: For `O=C1c2c(O)c(=O)c(-c3nccs3)cn2CCN1CCCc1ccccc1Cl` [Example 298, 2-[3-(2-chlorophenyl)propyl]-9-hydroxy-7-(thiazol-2-yl)-3,4-dihydro-2H-pyrido[1,2-a]pyrazine-1,8-dione hydrochloride], which IC50 is on record?
A: Its IC50 is less than 10 nM.

Q: With `O=C1c2c(O)c(=O)c(-c3nccs3)cn2CCN1CCCc1cccc(Cl)c1` [Example 299, 2-[3-(3-chlorophenyl)propyl]-9-hydroxy-7-(thiazol-2-yl)-3,4-dihydro-2H-pyrido[1,2-a]pyrazine-1,8-dione hydrochloride] as the compound, how does the IC50 read?
A: The IC50 was 10 to 100 nM.

Q: How did the IC50 turn out when `Cc1nsc(-c2cn3c(c(O)c2=O)C(=O)N(Cc2cccc(Cl)c2)CC3)n1` [Example 300, 2-(3-chlorobenzyl)-9-hydroxy-7-(3-methyl-1,2,4-thiadiazol-5-yl)-3,4-dihydro-2H-pyrido[1,2-a]pyrazine-1,8-dione hydrochloride] was run?
A: The IC50 was 10 to 100 nM.

Q: How did the IC50 turn out when `CNC(=O)c1cc(F)ccc1CN1CCn2cc(-c3nccs3)c(=O)c(O)c2C1=O` [Example 301, 5-fluoro-2-[9-hydroxy-1,8-dioxo-7-(thiazol-2-yl)-1,3,4,8-tetrahydro-pyrido[1,2-a]pyrazin-2-ylmethyl]-N-methylbenzamide] was run?
A: Its IC50 is 100 to 1000 nM.

Q: How did the IC50 turn out when `CC(=O)N(CC(C)C)c1cn2ccn(Cc3cccc(Cl)c3)c(=O)c2c(O)c1=O` [Example 302, N-[2-(3-chlorobenzyl)-9-hydroxy-1,8-dioxo-1,8-dihydro-2H-pyrido[1,2-a]pyrazin-7-yl]-N-isobutylacetamide] was run?
A: The IC50 was 10 to 100 nM.

Q: For `CC(=O)Nc1cn2ccn(Cc3ccc(F)cc3)c(=O)c2c(O)c1=O` [Example 303, N-[2-(4-fluorobenzyl)-9-hydroxy-1,8-dioxo-1,8-dihydro-2H-pyrido[1,2-a]pyrazin-7-yl]acetamide], which IC50 is on record?
A: Its IC50 is 10 to 100 nM.

Q: For `O=C(Nc1cn2ccn(Cc3ccc(F)cc3)c(=O)c2c(O)c1=O)c1ccccc1` [Example 304, N-[2-(4-fluorobenzyl)-9-hydroxy-1,8-dioxo-1,8-dihydro-2H-pyrido[1,2-a]pyrazin-7-yl]benzamide], which IC50 is on record?
A: The IC50 was less than 10 nM.

Q: Which IC50 does the source give for `CS(=O)(=O)Nc1cn2ccn(Cc3ccc(F)cc3)c(=O)c2c(O)c1=O` [Example 305, N-[2-(4-fluorobenzyl)-9-hydroxy-1,8-dioxo-1,8-dihydro-2H-pyrido[1,2-a]pyrazin-7-yl]methanesulfonamide] here?
A: The IC50 was less than 10 nM.

Q: How did the IC50 turn out when `O=c1c(-c2ccccn2)cn2ccn(Cc3ccc(F)cc3)c(=O)c2c1O` [Example 306, 2-(4-fluorobenzyl)-9-hydroxy-7-(pyridin-2-yl)-2H-pyrido[1,2-a]pyrazine-1,8-dione trifluoroacetate] was run?
A: Its IC50 is 10 to 100 nM.

Q: `O=C1c2c(O)c(=O)c(-c3nccs3)cn2CCN1Cc1ccccc1F` [Example 307, 2-(2-fluorobenzyl)-9-hydroxy-7-(thiazol-2-yl)-3,4-dihydro-2H-pyrido[1,2-a]pyrazine-1,8-dione] was tested. Which IC50 did it give?
A: Its IC50 is 100 to 1000 nM.

Q: Which IC50 does the source give for `O=C1c2c(O)c(=O)c(-c3nccs3)cn2CCN1Cc1cccc(F)c1` [Example 308, 2-(3-fluorobenzyl)-9-hydroxy-7-(thiazol-2-yl)-3,4-dihydro-2H-pyrido[1,2-a]pyrazine-1,8-dione] here?
A: The IC50 was 10 to 100 nM.

Q: Which IC50 does the source give for `O=C1c2c(O)c(=O)c(-c3nccs3)cn2CCN1Cc1ccc(F)cc1` [Example 309, 2-(4-fluorobenzyl)-9-hydroxy-7-(thiazol-2-yl)-3,4-dihydro-2H-pyrido[1,2-a]pyrazine-1,8-dione] here?
A: Its IC50 is 10 to 100 nM.

Q: For `O=C1c2c(O)c(=O)c(-c3nccs3)cn2CCN1Cc1ccccc1Cl` [Example 310, 2-(2-chlorobenzyl)-9-hydroxy-7-(thiazol-2-yl)-3,4-dihydro-2H-pyrido[1,2-a]pyrazine-1,8-dione], which IC50 is on record?
A: The IC50 was 100 to 1000 nM.

Q: With `O=C1c2c(O)c(=O)c(-c3nccs3)cn2CCN1Cc1ccc2ccccc2c1` [Example 311, 9-hydroxy-2-(naphthalen-2-ylmethyl)-7-(thiazol-2-yl)-3,4-dihydro-2H-pyrido[1,2-a]pyrazine-1,8-dione] as the compound, how does the IC50 read?
A: Its IC50 is less than 10 nM.

Q: With `O=C1c2c(O)c(=O)c(-c3nccs3)cn2CCN1CCCc1cccc(Cl)c1F` [Example 312, 2-[3-(3-chloro-2-fluorophenyl)propyl]-9-hydroxy-7-(thiazol-2-yl)-3,4-dihydro-2H-pyrido[1,2-a]pyrazine-1,8-dione] as the compound, how does the IC50 read?
A: Its IC50 is 10 to 100 nM.
